In patent publication US4650811A, “Ethenylphenol-indoles having antiarythmic utility” (Roussel Uclaf, priority 1984, dated 1987):

Experiments:
Rat caudal arteries = experiment: Anti-calcic activity in vitro: inhibition of K+-depolarized, Ca2+-induced contraction of rat caudal arteries; conditions: rat caudal artery, depolarized with 100 mM K+, Ca2+ 0.1 to 3.0 mM, 37° C.
Method: Rat caudal arteries were cut into a spiral and were attached to tension sensors and were kept in tanks of […] of Krebs buffer-sodium bicarbonate (NaCl: 120.8 mM, KCl: 5.9 mM, MgCl2 : 1.2 mM, NaH2 PO4 : 1.2 mM, NaHCO3 : 15.5 mM, glucose: 12.6 mM) at 37° C. gassed with a mixture of O2 : 95% - CO2 : 5%. The preparations were depolarized with a buffer solution with a concentration of 100 mM in K^+ ions (NaCl: 26.7 mM, KCl: 100 mM, MgCl2 : 1.2 mM, NaH2 PO4 : 1.2 mM, NaHCO3 : 15.5 mM, glucose: 12.6 mM). Calcium chloride was added in a volume of 250 μ1 to obtain a range of increasing concentrations of Ca^2+ ions from 0.1 to 3.0 mM. The contractions of the arteries were recorded and a control range was established in this way. The operation was repeated every 15 minutes with the Ca^2+ range of ions and the preparation was washed four times after each range.
When a stable response had been obtained, the operation with the range of Ca^2+ ions was carried out in the presence of different concentrations of the product under test until a stable response was obtained. The contractions of the arteries depend on the entry of the Ca^2+ ions into the cells of the smooth muscles and are caused by the depolarization of the smooth muscle by the K^+ ions and by the action of the noradrenaline liberated at the presynaptic level. By repeating the operation with the arteries denervated by the action of 6-OH dopamine, the specific action due to the noradrenaline was suppressed.

[1] = system: arterial pressure of male rats of Wistar strain; experiment: Hypotensive activity (carotid arterial pressure in anesthetized rats); type: in vivo, rat (Wistar); conditions: 1 mg/Kg, intravenous, vs initial control arterial pressure
Method: The hypotensive activity was studied on male rats of Wistar strain weighing about 300 g and anesthetized with 50 mg/Kg by intravenous route of sodium pentobarbital. The product tested was administered by intravenous route in the jugular vein and the pressure in the carotid artery was measured before and after administration of the product tested. The following table reports the variations expressed in percentage of the arterial pressure after administration of the product tested by comparison with the initial control arterial pressure.

α2 - adrenergic receptor = α2 - adrenergic receptor affinity (3H rauwolscine displacement, rat cortices); type: binding; conditions: ARL=100 CD/CX relative to phentolamine, 25° C., 45 minutes
Method: 10 cortices removed from the brains of male rats weighing on the average […] were homogenized in 90 ml of 0.32 M sucrose and after centrifuging the homogenized mixture at 1,000 g for 10 minutes at 0° C., the supernatant was centrifuged at 30,000 g for 10 minutes at 0° C. to +4° C. The residue was suspended in 240 ml of Tris HCl 50 mM buffer, pH 7.7 and centrifuged at 30,000 g for 15 minutes at 0° to +4° C. The new residue obtained was suspended in 480 ml of NaKPO4 50 mM buffer, pH 7.4. Then, 2 ml of suspension were incubated for 45 minutes at 25° C. in the presence of ^3 H rauwolscine at a concentration of […]:
(§1) (ii) with increasing concentrations of the product under test, or
(iii) to determine the non-specific fixation, with non-radioactive phentolamine at a concentration of 10^-5 M.
The incubated suspensions were filtered on Whatman GF/C and the filters were washed three times with 5 ml of NaKPO4 buffer, pH 7.4, at 0° C. The radio-activity of the filters was measured by liquid scintillation. The affinity of the product under test for the α2 - adrenergic receptors were given relative to phentolamine as reference product. CD=concentration of phentolamine inhibiting 50% of the specific fixation of ^3 H rauwolscine:
CX=concentration of the product under test inhibiting 50% of the specific fixation of ^3 H rauwolscine.

β1 - adrenergic receptor = target: T1, β1 - adrenergic receptor (Rattus norvegicus, UniProt P18090); experiment: β1 - adrenergic receptor affinity (3H dihydroalprenolol displacement, rat cortices); type: binding; conditions: ARL=100 CD/CX relative to propranolol; 3H dihydroalprenolol 10^-9 M, 37° C., 10 minutes
T1 construct: 10 cortices removed from the brains of rats; from tissue; host or cells: rat brain cortex, membrane preparation
T1 sequence (P18090 whole entry): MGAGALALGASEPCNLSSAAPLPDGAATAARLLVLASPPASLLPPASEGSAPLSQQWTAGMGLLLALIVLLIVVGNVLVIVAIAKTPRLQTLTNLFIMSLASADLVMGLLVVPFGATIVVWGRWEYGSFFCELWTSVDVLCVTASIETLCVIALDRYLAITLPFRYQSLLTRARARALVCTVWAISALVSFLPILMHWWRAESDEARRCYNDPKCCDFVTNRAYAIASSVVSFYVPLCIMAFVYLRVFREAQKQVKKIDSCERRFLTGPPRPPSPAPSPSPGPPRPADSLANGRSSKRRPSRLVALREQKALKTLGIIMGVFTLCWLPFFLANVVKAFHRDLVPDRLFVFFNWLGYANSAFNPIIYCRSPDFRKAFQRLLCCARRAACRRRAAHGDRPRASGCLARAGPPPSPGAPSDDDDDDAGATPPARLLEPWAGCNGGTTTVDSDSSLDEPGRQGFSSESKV
Method: 10 cortices removed from the brains of rats weighing on the average 150 g were homogenized in 90 ml of 0.32 M sucrose and after centrifuging the homogenized mixture at 1,000 g for 20 minutes at 0° C., the supernatant was centrifugated at 30,000 g for 15 minutes at 0° C. to +4° C. The residue was suspended in 120 ml of Tris HCl 50 mM buffer pH 7.7 and centrifuged at 30,000 g for 15 minutes at 0° C. to +4° C. The new residue obtained was suspended in 480 ml of Krebs Tris HCl 50 mM buffer, 7.7 pH. Then, 2 ml of the suspension were incubated for 10 minutes at 37° C. in the presence of ^3 H dihydroalprenolol at a concentration of 10^-9 M:
as §1
(iii) to determine the non-specific fixation, with non-radioactive propranolol at a concentration of 10^-5 M.
The incubated suspensions were filtered on Whatman GF/C and the filters were washed three times with 5 ml of Krebs Tris HCl buffer pH 7.7 at 0° C. The radio-activity of the filters was measured by liquid scintillation. The affinity of the product for the adrenergic receptors was given relative to propranolol as reference product,
CD=concentration of propranolol inhibiting 50% of the specific fixation of the ^3 H dihydroalprenolol: CX=concentration of the product under test inhibiting 50% of the specific fixation of the ^3 H dihydroalprenolol.

β2 - adrenergic receptor = target: T2, β2 - adrenergic receptor (Rattus norvegicus, UniProt P10608); experiment: β2 - adrenergic receptor affinity (3H dihydroalprenolol displacement, rat cerebelli); type: binding; conditions: ARL=100 CD/CX relative to propranolol; 3H dihydroalprenolol 10^-9 M, 37° C., 10 minutes
T2 construct: The cerebelli removed from the brains of male rats; from tissue; host or cells: rat cerebellum, membrane preparation
T2 sequence (P10608 whole entry): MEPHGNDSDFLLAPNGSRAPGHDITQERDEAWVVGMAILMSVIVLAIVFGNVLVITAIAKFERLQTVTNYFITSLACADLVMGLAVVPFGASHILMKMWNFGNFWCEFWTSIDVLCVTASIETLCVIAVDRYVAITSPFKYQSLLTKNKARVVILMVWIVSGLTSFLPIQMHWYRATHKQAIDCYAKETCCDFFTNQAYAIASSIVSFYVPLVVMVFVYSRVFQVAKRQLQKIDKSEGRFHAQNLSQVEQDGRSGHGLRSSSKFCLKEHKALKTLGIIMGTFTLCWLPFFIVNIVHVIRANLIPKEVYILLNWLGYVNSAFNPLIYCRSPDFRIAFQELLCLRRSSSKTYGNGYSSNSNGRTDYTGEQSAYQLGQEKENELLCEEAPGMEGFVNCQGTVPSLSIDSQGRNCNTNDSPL
Method: The cerebelli removed from the brains of male rats weighing on the average 150 g were homogenized in 90 ml of 0.32 M sucrose and after centrifuging the homogenized mixture at 1,000 g for 20 minutes at 0° C., the supernatant was centrifuged at 30,000 g for 15 minutes at 0° C. to +4° C. The residue was suspended in 120 ml of Tris HCl 50 mM buffer pH 7.7, and centrifuged at 30,000 g for 15 minutes at 0° to +4° C. The new residue obtained was suspended in 480 ml of Krebs Tris HCl buffer, pH 7.7. 2 ml of the suspension were then incubated at 37° C. for 10 minutes in the presence of 3H dihydroalprenolol at a concentration of 10^-9 M:
(ii) with increasing concentrations of the product under test
(iii) to determine the non-specific fixation, with non-radio-active propranolol at a concentration of 10^-5 M. The incubated suspensions were filtered on Whatman GF/C and the filters were washed three times with 5 ml of Krebs Tris HCl buffer pH 7.7 at 0° C.
The radio-activity of the filters was measured by liquid scintillation. The affinity of the test product for β2 - adrenergic receptors was given relative to propranolol as reference product.
CD=concentration of propranolol inhibiting 50% of the specific fixation of ^3 H dihydroalprenolol:
CX=concentration of the product under test inhibiting 50% of the specific fixation of the ^3 H dihydroalprenolol.

mice = experiment: Acute toxicity after oral administration to mice; type: in vivo
Method: The lethal doses LD0 for the different test compounds were evaluated after oral administration to mice and the maximum dose not causing any mortality in 8 days was called LD0.

[2] = system: disorders of the cardiac rhythm (aconitine) in rats; experiment: Anti-arrhythmic activity in rats (aconitine-induced disorders of the cardiac rhythm); type: in vivo, rat; conditions: intravenous, aconitine 10 μg/min five minutes after product, in comparison with controls
Method: Male rats weighing 300-350 g anesthetized by intraperitoneal route with 1.20 g/Kg of urethane were tracheotomized and submitted to artifical respiration (40-50 insufflations of 3 ml/minute). Needles were implanted sub-cutaneously to record the electro-cardiogram of the rats on the signal in derivation DII. The products under test were administered by intravenous route.
Five minutes after the product was administered, the jugular vein of the rats was perfused with 10 μg/min. of an aconitine solution and the time of appearance of disorders of the cardiac rhythm was noted. The results were expressed in percentage of the extension of the time of appearance of disorders of the cardiac rhythm in comparison with controls and as a function of the dose of the product under test.

Compound: CC(C)NCC(O)COc1ccccc1/C=C/c1cccc2[nH]ccc12 (stereo not drawn) [Example 1, 1-[2-[2-(1H-indol-4-yl)-ethenyl]-phenoxy]-3-[isopropyl-amino]-2-propanol]
- IC50 (Rat caudal arteries): 4000 nM
- % Variation of the arterial pressure ([1]; 1 min. after administration): -11%
- % Variation of the arterial pressure ([1]; 5 min. after administration): -11%
- % Variation of the arterial pressure ([1]; 10 min. after administration): -12%
- % Variation of the arterial pressure ([1]; 30 min. after administration): -13%
- ARL (relative affinity) (α2 - adrenergic receptor): 0.1%
- ARL (relative affinity) (β1 - adrenergic receptor): 92.5%
- ARL (relative affinity) (β2 - adrenergic receptor): 18%
- LD0 (maximum dose not causing any mortality in 8 days) (mice): > 100 mg/kg

Compound: CC(C)(C)NCCOc1ccccc1/C=C/c1cccc2[nH]ccc12 [Example 11, N-(1,1-dimethylethyl)-2-[2-[2-(1H-indol-4-yl)-ethenyl]-phenoxy]-ethanamine (trans E)]
- Percentage of extension of time of appearance of disorders of the cardiac rhythm ([2]; 5 mg/Kg): 41%
- LD0 (maximum dose not causing any mortality in 8 days) (mice): 200 mg/kg

Compound: CC(C)NCC(O)COc1ccc(/C=C/c2cccc3[nH]ccc23)cc1 (stereo not drawn) [Example 4]
- IC50 (Rat caudal arteries): 3500 nM
- ARL (relative affinity) (α2 - adrenergic receptor): 0.0%
- ARL (relative affinity) (β1 - adrenergic receptor): 1.0%
- ARL (relative affinity) (β2 - adrenergic receptor): 0.03%
- LD0 (maximum dose not causing any mortality in 8 days) (mice): 60 mg/kg

Compound: CC(C)(C)NCC(O)COc1ccc(/C=C/c2cccc3c2CC(=O)N3)cc1 (stereo not drawn) [Example 5, 1,3-dihydro-4-[2-[4-[3-[(1,1-dimethylethyl)-amino]-2-hydroxypropoxy]-phenyl]-ethenyl]-2H-indol-2-one]
- IC50 (Rat caudal arteries): 2500 nM
- LD0 (maximum dose not causing any mortality in 8 days) (mice): > 100 mg/kg

Compound: CC(C)(C)NCC(O)COc1ccccc1/C=C/c1cccc2[nH]ccc12 (stereo not drawn) [Example 2, 1-[(1,1-dimethylethyl)-amino]-3-[2-[2-(1H-indol-4-yl)-ethenyl]-phenoxy]-2-propanol]
- IC50 (Rat caudal arteries): 1200 nM
- Percentage of extension of time of appearance of disorders of the cardiac rhythm ([2]; 5 mg/Kg): 30%
- Percentage of extension of time of appearance of disorders of the cardiac rhythm ([2]; 10 mg/Kg): 110%
- % Variation of the arterial pressure ([1]; 1 min. after administration): -17%
- % Variation of the arterial pressure ([1]; 5 min. after administration): -10%
- % Variation of the arterial pressure ([1]; 10 min. after administration): -10%
- % Variation of the arterial pressure ([1]; 30 min. after administration): -14%
- ARL (relative affinity) (β1 - adrenergic receptor): 198%
- ARL (relative affinity) (β2 - adrenergic receptor): 172%
- LD0 (maximum dose not causing any mortality in 8 days) (mice): > 100 mg/kg

Compound: CC(C)(C)NCC(O)COc1ccccc1CCc1cccc2[nH]ccc12 (stereo not drawn) [Example 8, 1-[(1,1-dimethylethyl)-amino]-3-[2-[2-(1H-indol-4-yl)-ethyl]-phenoxy]-2-propanol]
- IC50 (Rat caudal arteries): 1500 nM
- Percentage of extension of time of appearance of disorders of the cardiac rhythm ([2]; 5 mg/Kg): 162%
- LD0 (maximum dose not causing any mortality in 8 days) (mice): > 400 mg/kg

Compound: CC(C)(C)NCC(O)COc1ccccc1/C=C/c1cccc2c1CC(=O)N2 (stereo not drawn) [Example 9, 1,3-dihydro-4-[2-[2-[3-[(1,1-dimethylethyl)-amino]-2-hydroxypropoxy]-phenyl]-ethenyl]-2H-indol-2-one]
- IC50 (Rat caudal arteries): 1400 nM
- Percentage of extension of time of appearance of disorders of the cardiac rhythm ([2]; 5 mg/Kg): 167%

Compound: CC(C)(C)NCC(O)COc1ccc(/C=C/c2cccc3[nH]ccc23)cc1 (stereo not drawn) [Example 3, 1-[(1,1-dimethylethyl)-amino]-3-[4-[2-(1H-indol-4-yl)-ethenyl]-phenoxy]-2-propanol]
- IC50 (Rat caudal arteries): 600 nM
- ARL (relative affinity) (α2 - adrenergic receptor): 0.7%
- ARL (relative affinity) (β1 - adrenergic receptor): 0.8%
- ARL (relative affinity) (β2 - adrenergic receptor): 0.1%
- LD0 (maximum dose not causing any mortality in 8 days) (mice): > 100 mg/kg

Compound: CC(C)(C)NCCCOc1ccccc1CCc1cccc2[nH]ccc12 [Example 12, N-(1,1-dimethylethyl)-3-[2-[2-(1H-indol-4-yl)-ethyl]-phenoxy]-propanamine]
- IC50 (Rat caudal arteries): 300 nM

Compound: CC(C)(C)NCCCOc1ccccc1/C=C/c1cccc2[nH]ccc12 [Example 6, N-(1,1-dimethylethyl)-3-[2-[2-(1H-indol-4-yl)-ethenyl]-phenoxy]-propanamine]
- IC50 (Rat caudal arteries): 2000 nM
- Percentage of extension of time of appearance of disorders of the cardiac rhythm ([2]; 5 mg/Kg): 49%
- LD0 (maximum dose not causing any mortality in 8 days) (mice): > 400 mg/kg
